Assay results: patent US20240199611A1, “ANTIBACTERIAL COMPOUNDS” (JANSSEN SCIENCES IRELAND UNLIMITED COMPANY, priority 2021, published 2024)
In brackets after ≈: the same amount, converted by molar mass.

Experiments:
[1] = tested on: Ca Ch; details: read-out: CVS Ca Ch IC50
[2] = tested on: Na Ch; assay: CVS Na Ch
[3] = GSH measurement (reactive metabolites); format: in vitro ADME
Description: (§1) The compounds of the invention/examples may have advantages associated with in vitro potency, kill kinetics (i.e. bactericidal effect) in vitro, PK properties, food effect, safety/toxicity (including liver toxicity, coagulation, 5-LO oxygenase), metabolic stability, Ames II negativity, MNT negativity, aqueous based solubility (and ability to formulate) and/or cardiovascular effect e.g. on animals (e.g. anesthetized guinea pig). The data below that was generated/calculated may be obtained using standard methods/assays, for instance that are available in the literature or which may be performed by a supplier (e.g. Microsomal Stability Assay—Cyprotex, Mitochondrial toxicity (Glu/Gal) assay—Cyprotex, as well as literature CYP cocktail inhibition assays). In some instances, GSH was measured (reactive metabolites, glucuronidation) to observe if a dihydrodiol is observed by LCMS (fragmentation ions), which would correspond to a dihydroxylation on the core heterocycle.

[4] = Mitochondrial toxicity (Glu/Gal) assay; format: cell-based
Description: as §1

[5] = in vivo
[6] = tested on: M. tuberculosis H37Rv; details: strain M. tuberculosis H37Rv, inside macrophages; cited from earlier work
[7] = AMES II; format: cell-based
Description: as §1

[8] = molecular target: Kinase panel; assay: Kinase panel; format: biochemical
[9] = tested on: Cyp 3A4; assay: Cyp 3A4 induction; details: at 1 μM

CCc1nc2ccc(Cl)cn2c1C(=O)NCc1ccc(N2CCN(S(C)(=O)=O)C=N2)cc1 [Compound 20]
IC50 [1]: > 10 µM | melting point: 209.36 °C

CCc1nc2ccc(C#N)cn2c1C(=O)NCc1ccc(N2CCN(S(=O)(=O)C(F)(F)F)C(OC)=N2)c(F)c1 [Compound 73]
IC50 [2]: > 10 µM | GSH / reactive metabolites [3]: no measure of GSH | melting point: 212.08 °C

O=C(NCc1ccc(N2CCN(S(=O)(=O)C(F)(F)F)C=N2)c(F)c1)c1c(C(F)(F)F)nc2ccccn12 [Compound 152]
GSH / reactive metabolites [3]: formation of reactive metabolites was blocked | Glu/Gal assay ratio (mitotoxicity) [4]: < 3 | bioavailability [5]: good bioavailaibility

CCc1nc2ccc(Cl)cn2c1C(=O)NCc1ccc(N2CCC(c3ccc(OC(F)(F)F)cc3)CC2)cc1 [Compound Q203]
MIC50 [6]: 0.28 nM (≈ 0.156 ng/mL)

CCc1nc2ncc(C)cn2c1C(=O)NCc1ccc(N2CCN(S(=O)(=O)C(F)(F)F)C=N2)c(F)c1 [Compound 161]
IC50 [1]: > 10 µM | Glu/Gal assay ratio (mitotoxicity) [4]: < 3 | AMES II [7]: negative | Kinase panel [8]: negative | bioavailability [5]: good bioavailaibility | Cyp 3A4 induction (% control) [9]: 3.0 % control

CCc1nc2ccc(Cl)cn2c1C(=O)NCc1ccc(N2CCN(S(=O)(=O)C(F)(F)F)C=N2)cc1 [Compound 1]
IC50 [1]: > 10 µM | Glu/Gal assay ratio (mitotoxicity) [4]: < 3 | melting point: 183.46 °C | bioavailability [5]: good bioavailability

CCc1nc2ccc(Cl)cn2c1C(=O)NCc1ccc(N2CCN(S(=O)(=O)C(F)(F)F)C(OC)=N2)cc1 [Compound 6]
IC50 [2]: > 10 µM | Glu/Gal assay ratio (mitotoxicity) [4]: < 3
